From patent US8906909B2 (Curis, Inc., priority 2009, dated 2014)
Read-outs that look alike come from different tables or passages of the source.

How the values were obtained:
Format in all cases: cell-based
H1975 cells = test: Cell proliferation assay Method B, H1975; settings: Homo sapiens, NCI-H1975; NSCLC; Method B; 72 hours; read-out: antiproliferative activity IC50, H1975
Procedure, shortened: (§1)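 Serum-reduced (0.5% FBS) proliferation format: compounds at various concentrations, 72 h incubation, then CellTiter-Glo ATP luminescence as the growth-inhibition measure.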

H1993 cells = test: Cell proliferation assay Method B, H1993; settings: Homo sapiens, NCI-H1993; NSCLC; Method B; 72 hours; read-out: antiproliferative activity IC50, H1993
Procedure, shortened: as §1

MDA-MB-231 cells = test: Cell proliferation assay Method B, MDA-MB-231; settings: Homo sapiens, Breast, Method B, 72 hours
Procedure, shortened: as §1

HCC1500 cells = test: Cell proliferation assay Method B, HCC1500; settings: Breast, 72 hours, read-out: antiproliferative activity IC50, HCC1500
Procedure: (§2) Cancer cell lines were plated at 5,000 to 10,000 per well in 96-well flat bottomed plates with various concentration of compounds. The cells were incubated with compounds for 72 hours in the presence of 0.5% of fetal bovine serum. Growth inhibition was accessed by adenosine triphosphate (ATP) content assay using Promega CellTiter-Glo kit. Promega CellTiter-Glo kit is an ATP monitoring system based on firefly luciferase. Briefly, 16 μl of mammalian cell lysis and substrate solution was added to 84 μl of culture medium per well to lyse the cells and stabilize the ATP. The mixture was shaken and incubated for 30 minutes and subsequently the luminescence was measured.

HCC1806 cells = test: Cell proliferation assay Method B, HCC1806; settings: Homo sapiens, Breast, 72 hours, read-out: antiproliferative activity IC50, HCC1806
Procedure: as §2

SKBr3 cells = test: Cell proliferation assay Method B, SKBr3; settings: Homo sapiens, SK-BR-3, Breast, 72 hours, read-out: antiproliferative activity IC50, SKBr3
Procedure: as §2

BT474 cells = test: Cell proliferation assay Method B, BT474; settings: Homo sapiens, BT-474; Breast; Method B; 72 hours; read-out: antiproliferative activity IC50, BT474
Procedure, shortened: as §1

MDA-MB-361 cells = test: Cell proliferation assay Method B, MDA-MB-361; settings: Homo sapiens, Breast, 72 hours, read-out: antiproliferative activity IC50, MDA-MB-361
Procedure: as §2

UACC-893 cells = test: Cell proliferation assay Method B, UACC-893; settings: Homo sapiens, Breast, 72 hours, read-out: antiproliferative activity IC50, UACC-893
Procedure: as §2

MDA-MB-453 cells = test: Cell proliferation assay Method B, MDA-MB-453; settings: Homo sapiens, Breast, 72 hours, read-out: antiproliferative activity IC50, MDA-MB-453
Procedure: as §2

MCF-7 cells = test: Cell proliferation assay Method B, MCF-7; settings: Homo sapiens, MCF7, Breast, 72 hours, read-out: antiproliferative activity IC50, MCF-7
Procedure: as §2

T47D cells = test: Cell proliferation assay Method B, T47D; settings: Homo sapiens, Breast, 72 hours, read-out: antiproliferative activity IC50, T47D
Procedure: as §2

ZR-75-1 cells = test: Cell proliferation assay Method B, ZR-75-1; settings: Homo sapiens, Breast, 72 hours, read-out: antiproliferative activity IC50, ZR-75-1
Procedure: as §2

MDA-MB-436 cells = test: Cell proliferation assay Method B, MDA-MB-436; settings: Homo sapiens, Breast, Method B, 72 hours, read-out: antiproliferative activity IC50, MDA-MB-436
Procedure: as §2

Ca127 cells = test: Cell proliferation assay Method B, Ca127; settings: HNC; Method B; 72 hours; read-out: antiproliferative activity IC50, Ca127
Procedure: as §2

Sk-Mel-28 cells = test: Cell proliferation assay Method B, Sk-Mel-28; settings: Homo sapiens, SK-MEL-28; Melanoma; Method B; 72 hours; read-out: antiproliferative activity IC50, Sk-Mel-28
Procedure, shortened: as §1

A375 cells = test: Cell proliferation assay Method B, A375; settings: Homo sapiens, A-375; Melanoma; Method B; 72 hours; read-out: antiproliferative activity IC50, A375
Procedure, shortened: as §1

MOLT-4 cells = test: Cell proliferation assay Method B, MOLT-4; settings: Homo sapiens, ALL, 72 hours, read-out: antiproliferative activity IC50, MOLT-4
Procedure: as §2

HL-60 cells = test: Cell proliferation assay Method B, HL-60; settings: Homo sapiens, AML, 72 hours, read-out: antiproliferative activity IC50, HL-60
Procedure: as §2

U937 cells = test: Cell proliferation assay Method B, U937; settings: Homo sapiens, U-937, AML, 72 hours, read-out: antiproliferative activity IC50, U937
Procedure: as §2

THP-1 cells = test: Cell proliferation assay Method B, THP-1; settings: Homo sapiens, AML, 72 hours, read-out: antiproliferative activity IC50, THP-1
Procedure: as §2

MV-4-11 cells = test: Cell proliferation assay Method B, MV-4-11; settings: Homo sapiens, MV4-11, AML, 72 hours, read-out: antiproliferative activity IC50, MV-4-11
Procedure: as §2

Pfeiffer cells = test: Cell proliferation assay Method B, Pfeiffer; settings: Homo sapiens, NHL, 72 hours, read-out: antiproliferative activity IC50, Pfeiffer
Procedure: as §2

Raji cells = test: Cell proliferation assay Method B, Raji; settings: Homo sapiens, NHL, 72 hours, read-out: antiproliferative activity IC50, Raji
Procedure: as §2

Daudi cells = test: Cell proliferation assay Method B, Daudi; settings: Homo sapiens, NHL, 72 hours, read-out: antiproliferative activity IC50, Daudi
Procedure: as §2

K562 cells = test: Cell proliferation assay Method B, K562; settings: Homo sapiens, CML, 72 hours, read-out: antiproliferative activity IC50, K562
Procedure: as §2

MEG-01 cells = test: Cell proliferation assay Method B, MEG-01; settings: Homo sapiens, CML, 72 hours, read-out: antiproliferative activity IC50, MEG-01
Procedure: as §2

ARH77 cells = test: Cell proliferation assay Method B, ARH77; settings: Homo sapiens, ARH-77, Multiple Myeloma, 72 hours, read-out: antiproliferative activity IC50, ARH77
Procedure: as §2

L1210 cells = test: Cell proliferation assay Method B, L1210; settings: Mouse LL, 72 hours, read-out: antiproliferative activity IC50, L1210
Procedure: as §2

[1] = read-out: antiproliferative activity IC50, MDA-MB-231 (second listing, r32)

Structure (SMILES) | IC50 (H1975 cells) [nM] | IC50 (H1993 cells) [nM] | IC50 (MDA-MB-231 cells; [1]) [nM] | IC50 (HCC1500 cells) [nM] | IC50 (HCC1806 cells) [nM] | IC50 (SKBr3 cells) [nM] | IC50 (BT474 cells) [nM] | IC50 (MDA-MB-361 cells) [nM] | IC50 (UACC-893 cells) [nM] | IC50 (MDA-MB-453 cells) [nM] | IC50 (MCF-7 cells) [nM] | IC50 (T47D cells) [nM] | IC50 (ZR-75-1 cells) [nM] | IC50 (MDA-MB-436 cells) [nM] | IC50 (Ca127 cells) [nM] | IC50 (Sk-Mel-28 cells) [nM] | IC50 (A375 cells) [nM] | IC50 (MOLT-4 cells) [nM] | IC50 (HL-60 cells) [nM] | IC50 (U937 cells) [nM] | other results
CN(Cc1cc2nc(-c3ccc(N)cc3)nc(N3CCOCC3)c2s1)c1ncc(C(=O)NO)cn1 [Compound 150, 2-(((2-(4-aminophenyl)-4-morpholinothieno[3,2-d]pyrimidin-6-yl)methyl)(methyl)amino)-N-hydroxypyrimidine-5-carboxamide] | < 10 | < 10 | 10 to 100 | < 10 | 10 to 100 | 10 to 100 | < 10 | < 10 | < 10 | < 10 | < 10 | < 10 | 10 to 100 | < 10 | < 10 | < 10 | < 10 | < 10 | < 10 | < 10 | IC50 (THP-1 cells): < 10 nM; IC50 (MV-4-11 cells): < 10 nM; IC50 (Pfeiffer cells): < 10 nM; IC50 (Raji cells): < 10 nM; IC50 (Daudi cells): < 10 nM; IC50 (K562 cells): 10 to 100 nM; IC50 (MEG-01 cells): 10 to 100 nM; IC50 (ARH77 cells): < 10 nM; IC50 (L1210 cells): < 10 nM
CS(=O)(=O)N1CCN(Cc2cc3nc(-c4cccc5[nH]ncc45)nc(N4CCOCC4)c3s2)CC1 [GDC-0941, reference compound] | 100 to 1000 | 1000 to 10000 | > 10000 | > 10000 | > 10000 | > 10000 | 100 to 1000 | 100 to 1000 | 1000 to 10000 | 100 to 1000 | 100 to 1000 | > 10000 | 100 to 1000 | 1000 to 10000 | 100 to 1000 | 10 to 100 | 1000 to 10000 | 100 to 1000 | 100 to 1000 | 1000 to 10000 | IC50 (MDA-MB-231 cells; read-out: antiproliferative activity IC50, MDA-MB-231 (first listing, r25)): > 10000 nM; IC50 (THP-1 cells): 1000 to 10000 nM; IC50 (MV-4-11 cells): 1000 to 10000 nM; IC50 (Pfeiffer cells): 100 to 1000 nM; IC50 (Raji cells): > 10000 nM; IC50 (Daudi cells): > 10000 nM; IC50 (K562 cells): > 10000 nM; IC50 (MEG-01 cells): > 10000 nM; IC50 (ARH77 cells): > 10000 nM; IC50 (L1210 cells): > 10000 nM
